Results taken from ChEMBL document CHEMBL5223080, “Discovery of Pyrrole-imidazole Polyamides as PD-L1 Expression Inhibitors and Their Anticancer Activity via Immune and Nonimmune Pathways” (J Med Chem, 2021).
The source made the active and inactive calls. The rule behind the calls is not given here.

Legend:
dsDNA [1] = test: Binding affinity to human wild-type double stranded DNA assessed as thermal stability of compound-DNA complex by measuring change in melting temperature at stoichiometry ratio 1:0.5 by UV melting assay; type: nucleic-acid assay
dsDNA [2] = test: Binding affinity to human wild-type double stranded DNA assessed as thermal stability of compound-DNA complex by measuring change in melting temperature at stoichiometry ratio 1:1 by UV melting assay; type: nucleic-acid assay
dsDNA [3] = test: Binding affinity to human wild-type double stranded DNA assessed as thermal stability of compound-DNA complex by measuring change in melting temperature at stoichiometry ratio 1:4 by UV melting assay; type: nucleic-acid assay
dsDNA [4] = test: Binding affinity to human mutant double stranded DNA assessed as thermal stability of compound-DNA complex by measuring melting temperature change in at stoichiometry ratio 1:0.5 by UV melting assay; type: nucleic-acid assay
dsDNA [5] = test: Binding affinity to human mutant double stranded DNA assessed as thermal stability of compound-DNA complex by measuring change in melting temperature at stoichiometry ratio 1:1 by UV melting assay; type: nucleic-acid assay
dsDNA [6] = test: Binding affinity to human mutant double stranded DNA assessed as thermal stability of compound-DNA complex by measuring melting change in temperature at stoichiometry ratio 1:4 by UV melting assay; type: nucleic-acid assay
dsDNA [7] = test: Binding affinity to human 5'-biotin-double stranded DNA assessed as association rate constant by surface plasmon resonance; type: nucleic-acid assay
dsDNA [8] = test: Binding affinity to human 5'-biotin-double stranded DNA assessed as dissociation rate constant by surface plasmon resonance; type: nucleic-acid assay
dsDNA [9] = test: Binding affinity to human 5'-biotin-double stranded DNA assessed as dissociation equilibrium constant by surface plasmon resonance; type: nucleic-acid assay
DNA [10] = test: Binding affinity to wild-type double stranded DNA (unknown origin) by assessed as decrease in compound-DNA complex at >=8 uM by competitive electrophoretic mobility shift assay; type: nucleic-acid assay
[11] = Binding affinity to human single stranded DNA (unknown origin) by electrophoretic mobility shift assay
[12] = Binding affinity to DNA STAT3 binding site of PD-L1 promoter region (unknown origin) assessed as disappearance of band of wild-type double stranded DNA-STAT3 protein complex at > 8 uM by competitive electrophoretic mobility shift assay
Homo sapiens [13] = species on record: Homo sapiens; test: Binding affinity to 5'-biotin-double stranded DNA (unknown origin) assessed as saturation of the compound-DNA complex at 350 to 500 nM by surface plasmon resonance; conditions: dose 350-500 nM
DNA [14] = test: Binding affinity to 5'-biotin-double stranded DNA (unknown origin) assessed as interaction with DNA to achieve steady state at 20 nM; type: nucleic-acid assay
HCC827 [15] = test: Inhibition of PD-L1 mRNA expression in IFNgamma-induced human HCC827 cells measured for 36 hrs by qRT-PCR analysis; type: functional, cell-based; conditions: dose 1.25-10 µM
MDA-MB-231 [16] = test: Inhibition of PD-L1 mRNA expression in IFNgamma-induced human MDA-MB-231 cells measured for 36 hrs by qRT-PCR analysis; type: functional, cell-based; conditions: dose 1.25-10 µM
HCC827 [17] = test: Inhibition of PD-L1 protein expression in IFNgamma-induced human HCC827 cells measured for 36 hrs by Western blot analysis; type: functional, cell-based; conditions: dose 1.25-10 µM
MDA-MB-231 [18] = test: Inhibition of PD-L1 protein expression in IFNgamma-induced human MDA-MB-231 cells measured for 36 hrs by Western blot analysis; type: functional, cell-based; conditions: dose 1.25-10 µM
[19] = (§1) Induction of T-cell mediated cell killing in human HCC827 cells co-cultured with PMA-activated Jurkat T cells assessed as IL-2 production at 8 uM by ELISA relative to control; type: functional
[20] = (§2) Induction of T-cell mediated cell killing in human MDA-MB-231 cells co-cultured with PMA-activated Jurkat T cells assessed as IL-2 production at 8 uM by ELISA relative to control; type: functional
[21] = (§3) Induction of T-cell mediated cytotoxicity against human HCC827 cells co-cultured with Jurkat cells assessed as apoptotic cells at 8 uM incubated for 36 hrs by standard CCK-8 assay relative to control; type: functional
[22] = (§4) Induction of T-cell mediated cytotoxicity against human MDA-MB-231 cells co-cultured with Jurkat cells assessed as apoptotic cells at 8 uM incubated for 36 hrs by standard CCK-8 assay relative to control; type: functional
Jurkat = test: Cytotoxicity against human Jurkat cells at 8 uM incubated for 36 hrs by standard CCK-8 assay; type: toxicity, cell-based
HCC827 [23] = test: Cytotoxicity against human HCC827 cells incubated for 36 hrs by standard CCK-8 assay; type: functional, cell-based; conditions: for IC50: HCC827, 36 h; for Activity: dose 2-32 µM
MDA-MB-231 [24] = test: Cytotoxicity against human MDA-MB-231 cells incubated for 36 hrs by standard CCK-8 assay; type: functional, cell-based; conditions: for IC50: MDA-MB-231, 36 h; for Activity: dose 2-32 µM
MRC5 = test: Cytotoxicity against human MRC5 cells at 32 uM by standard CCK-8 assay; type: toxicity, cell-based; conditions: mrc5, 32 µM
HCC827 [25] = test: Induction of apoptosis in human HCC827 cells co-cultured with human Jurkat T cells at 8 uM relative to control; type: functional
MDA-MB-231 [26] = test: Induction of apoptosis in human MDA-MB-231 cells co-cultured with human Jurkat T cells at 8 uM relative to control; type: functional
HCC827 [27] = test: Antimigratory activity in human HCC827 cells assessed as inhibition rate at 0.5 to 1 uM measured after 48 hrs by Wound healing assay relative to control; type: functional; design: scale not given: the % may be the effect or the level left; conditions: dose 0.5-1 µM
MDA-MB-231 [28] = test: Antimigratory activity in human MDA-MB-231 cells assessed as inhibition rate at 0.5 to 1 uM measured after 48 hrs by Wound healing assay relative to control; type: functional; design: scale not given: the % may be the effect or the level left; conditions: dose 0.5-1 µM
HCC827 [29] = test: Antimigratory activity in human HCC827 cells assessed as inhibition rate at 2 uM measured after 48 hrs by Wound healing assay relative to control; type: functional; design: scale not given: the % may be the effect or the level left
MDA-MB-231 [30] = test: Antimigratory activity in human MDA-MB-231 cells assessed as inhibition rate at 2 uM measured after 48 hrs by Wound healing assay relative to control; type: functional; design: scale not given: the % may be the effect or the level left
MDA-MB-231 [31] = test: Antitumour activity against human MDA-MB-231 cells assessed as measuring interleukin-2 levels by ELISA; type: functional
HCC827 [32] = test: Antitumour activity against human HCC827 cells assessed as measuring interleukin-2 levels by ELISA; type: functional
DNA [33] = test: Binding affinity to wild type double stranded DNA (unknown origin) incubated for 24 hrs by Circular Dichroism assay; type: nucleic-acid assay
DNA [34] = test: Binding affinity to wild type double stranded DNA (unknown origin) at 1:1 compound to DNA ratio incubated for 24 hrs at 340 nm by Circular Dichroism assay; type: nucleic-acid assay
DNA [35] = test: Binding affinity to wild type 28 nucleotide double stranded DNA (unknown origin) in PD-L1 gene promotor region at 1:1 compound to DNA ratio incubated for 24 hrs by Circular Dichroism assay; type: nucleic-acid assay
[36] = Binding affinity to DNA STAT3 binding site of PD-L1 promoter region (unknown origin) by electrophoretic mobility shift assay
Homo sapiens [37] = species on record: Homo sapiens; test: Binding affinity to DNA STAT3 binding site of PD-L1 promoter region assessed as effect on binding of STAT3 protein to STAT3 binding site of PD-L1 promoter region by competitive electrophoretic mobility shift assay
HCC827 [38] = test: as §1; type: functional
MDA-MB-231 [39] = test: as §2; type: functional
HCC827 [40] = test: as §3; type: functional
MDA-MB-231 [41] = test: as §4; type: functional

SMILES: CC(=O)Nc1cc(C(=O)Nc2cc(C(=O)Nc3cc(C(=O)Nc4cn(C)c(C(=O)Nc5cn(C)c(C(=O)NCCC(=O)Nc6cn(C)c(C(=O)Nc7cc(C(=O)Nc8cc(C(=O)NCCCC(=O)Nc9cc(C(=O)Nc%10cc(C(=O)Nc%11cc(C(=O)NCCC(=O)Nc%12cc(C(=O)Nc%13cc(C(=O)Nc%14cn(C)c(C(=O)Nc%15cc(C(=O)Nc%16cc(C(=O)NCCC(=O)NCCCN(C)C)n(C)c%16)n(C)c%15)n%14)n(C)c%13)n(C)c%12)n(C)c%11)n(C)c%10)n(C)c9)n(C)c8)n(C)c7)n6)n5)n4)n(C)c3)n(C)c2)n(C)c1.Cl
- ΔTm (dsDNA [1]): 2.7 °C
- ΔTm (dsDNA [2]): 8.2 °C
- ΔTm (dsDNA [3]): 8.6 °C
- ΔTm (dsDNA [4]): 0.2 °C
- ΔTm (dsDNA [5]): 0.3 °C
- ΔTm (dsDNA [6]): 0.6 °C
- Ka (dsDNA [7]): 1.28 10^6/M/s
- Kd (dsDNA [8]): 1.06 10^-2/s
- Kd (dsDNA [9]): 0.00828 µM
- Activity (DNA [10]): Active
- Activity [11]: inactive
- Activity [12]: Active
- Activity (Homo sapiens [13]): Active
- Activity (DNA [14]): Active
- inhibition (HCC827 [15]): Dose-Dependent Effect
- inhibition (MDA-MB-231 [16]): Dose-Dependent Effect
- inhibition (HCC827 [17]): Dose-Dependent Effect
- inhibition (MDA-MB-231 [18]): Dose-Dependent Effect
- Activity [19]: 31.41%
- Activity [20]: 33%
- Activity [21]: 48%
- Activity [22]: 50.73%
- Activity (Jurkat): Non-Toxic
- IC50 (HCC827 [23]): 23.2 µM
- Activity (HCC827 [23]): Dose-Dependent Effect
- IC50 (MDA-MB-231 [24]): 21.7 µM
- Activity (MDA-MB-231 [24]): Dose-Dependent Effect
- Activity (MRC5): Non-Toxic
- Activity (HCC827 [25]): 23.4%
- Activity (MDA-MB-231 [26]): 27.76%
- Activity (HCC827 [27]): 50%
- Activity (MDA-MB-231 [28]): 50%
- Activity (HCC827 [29]): >70%
- Activity (MDA-MB-231 [30]): >70%
- Activity (MDA-MB-231 [31]): 48.06 pg/mL
- Activity (HCC827 [32]): 28.2 pg/mL
- Activity (DNA [33]): Active
- Activity (DNA [34]): Active
- Activity (DNA [35]): Active

SMILES: CC(=O)Nc1cc(C(=O)Nc2cc(C(=O)Nc3cc(C(=O)Nc4cn(C)c(C(=O)NCCC(=O)Nc5cn(C)c(C(=O)NCCCC(=O)Nc6cc(C(=O)Nc7cc(C(=O)NCCC(=O)Nc8cn(C)c(C(=O)Nc9cn(C)c(C(=O)Nc%10cc(C(=O)NCCC(=O)NCCCN(C)C)n(C)c%10)n9)n8)n(C)c7)n(C)c6)n5)n4)n(C)c3)n(C)c2)n(C)c1.Cl
- ΔTm (dsDNA [1]): 0.2 °C
- ΔTm (dsDNA [2]): 0.4 °C
- ΔTm (dsDNA [3]): 0.7 °C
- Activity [11]: inactive
- Activity [36]: inactive
- Activity (Homo sapiens [37]): inactive
- inhibition (HCC827 [17]): inactive
- inhibition (MDA-MB-231 [18]): inactive
- Activity (HCC827 [38]): inactive
- Activity (MDA-MB-231 [39]): inactive
- Activity (HCC827 [40]): inactive
- Activity (MDA-MB-231 [41]): inactive
- Activity (Jurkat): Non-Toxic
- IC50 (HCC827 [23]): > 200 µM
- Activity (HCC827 [23]): inactive
- IC50 (MDA-MB-231 [24]): > 200 µM
- Activity (MDA-MB-231 [24]): inactive
- Activity (MRC5): Non-Toxic
- Activity (MDA-MB-231 [31]): inactive
- Activity (HCC827 [32]): inactive
